# Laboratory results from publication PMC5218480 (PLoS ONE, 2017).
# Test system: MV-4-11 cells
# Experiment: Gene expression microarray analysis (Affymetrix PrimeView) and GSEA
# Assay type: cell-based, human
# Set-up: RFU PODN (11730768_x_at) / Fold change /veh PODN (11730768_x_at) / RFU LINC00158 (11744669_a_at) / Fold change /veh LINC00158 (11744669_a_at) / RFU DUSP10 (11751237_a_at) / Fold change /veh DUSP10 (11751237_a_at) / RFU ID3 (11757404_x_at) / Fold change /veh ID3 (11757404_x_at) / RFU PLEKHG5 (11737974_s_at) / Fold change /veh PLEKHG5 (11737974_s_at) / RFU LRRC4B (11730491_at) / Fold change /veh LRRC4B (11730491_at) / RFU GIMAP4 (11747438_a_at) / Fold change /veh GIMAP4 (11747438_a_at) / RFU KRT8 (11758183_x_at) / Fold change /veh KRT8 (11758183_x_at) / RFU CNN1 (11734310_a_at) / Fold change /veh CNN1 (11734310_a_at) / RFU VPS37D (11726825_at) / Fold change /veh VPS37D (11726825_at) / RFU C10orf10 (11716522_x_at) / Fold change /veh C10orf10 (11716522_x_at) / RFU KIR2DL2 /// KIR2DL4 /// KIR2DL5A /// KIR2DL5B /// KIR2DS1 /// KIR2DS2 /// KIR2DS3 /// KIR2DS4 /// KIR3DL3 /// KIR3DL3 /// KIR3DS1 (11738374_at) / Fold change /veh KIR2DL2 /// KIR2DL4 /// KIR2DL5A /// KIR2DL5B /// KIR2DS1 /// KIR2DS2 /// KIR2DS3 /// KIR2DS4 /// KIR3DL3 /// KIR3DL3 /// KIR3DS1 (11738374_at) / RFU C1QL1 (11718748_at) / Fold change /veh C1QL1 (11718748_at) / RFU TMPRSS4 (11747572_a_at) / Fold change /veh TMPRSS4 (11747572_a_at) / RFU HAMP (11756126_x_at) / Fold change /veh HAMP (11756126_x_at) / RFU RNFT2 (11725882_a_at) / Fold change /veh RNFT2 (11725882_a_at) / RFU NR4A2 (11747474_a_at) / Fold change /veh NR4A2 (11747474_a_at) / RFU ABCC12 (11746883_a_at) / Fold change /veh ABCC12 (11746883_a_at) / RFU TMEM136 (11760407_x_at) / Fold change /veh TMEM136 (11760407_x_at) / RFU CLDN22 /// WWC2 (11732394_at) / Fold change /veh CLDN22 /// WWC2 (11732394_at) / RFU HLA-DPB1 (11760878_x_at) / Fold change /veh HLA-DPB1 (11760878_x_at) / RFU SPINT1 (11716480_a_at) / Fold change /veh SPINT1 (11716480_a_at) / RFU GAP43 (11754022_s_at) / Fold change /veh GAP43 (11754022_s_at) / RFU A4GNT (11735810_at) / Fold change /veh A4GNT (11735810_at) / RFU PRB3 (11715151_x_at) / Fold change /veh PRB3 (11715151_x_at) / RFU TUBB4B (11761932_at) / Fold change /veh TUBB4B (11761932_at) / RFU CAPN14 (11732068_a_at) / Fold change /veh CAPN14 (11732068_a_at) / RFU TMCC2 (11721928_a_at) / Fold change /veh TMCC2 (11721928_a_at) / RFU IRGQ (11745062_a_at) / Fold change /veh IRGQ (11745062_a_at) / RFU FAM174B (11720279_a_at) / Fold change /veh FAM174B (11720279_a_at) / RFU TMPRSS4 (11748680_a_at) / Fold change /veh TMPRSS4 (11748680_a_at) / RFU FAM212B (11763350_a_at) / Fold change /veh FAM212B (11763350_a_at) / RFU PLEKHG5 (11743358_a_at) / Fold change /veh PLEKHG5 (11743358_a_at) / RFU ZSCAN30 (11745921_a_at) / Fold change /veh ZSCAN30 (11745921_a_at) / RFU CMKLR1 (11741424_a_at) / Fold change /veh CMKLR1 (11741424_a_at) / RFU LOC101060620 /// MAPK8IP1 (11723275_at) / Fold change /veh LOC101060620 /// MAPK8IP1 (11723275_at) / RFU SPTSSB (11747773_x_at) / Fold change /veh SPTSSB (11747773_x_at) / RFU PRSS12 (11739890_at) / Fold change /veh PRSS12 (11739890_at) / RFU BIN1 (11741810_x_at) / Fold change /veh BIN1 (11741810_x_at) / RFU WNT11 (11732464_a_at) / Fold change /veh WNT11 (11732464_a_at) / RFU C10orf10 (11716521_a_at) / Fold change /veh C10orf10 (11716521_a_at) / RFU C5orf56 (11738089_at) / Fold change /veh C5orf56 (11738089_at) / RFU CYB561 (11721691_x_at) / Fold change /veh CYB561 (11721691_x_at) / RFU ANKRD19P (11752326_a_at) / Fold change /veh ANKRD19P (11752326_a_at) / RFU OR2T12 /// OR2T33 /// OR2T8 (11738714_s_at) / Fold change /veh OR2T12 /// OR2T33 /// OR2T8 (11738714_s_at) / RFU VCAN (11748164_a_at) / Fold change /veh VCAN (11748164_a_at) / RFU JSRP1 (11732532_at) / Fold change /veh JSRP1 (11732532_at) / RFU KRTAP10-11 (11738290_x_at) / Fold change /veh KRTAP10-11 (11738290_x_at) / RFU MYO3A (11730013_a_at) / Fold change /veh MYO3A (11730013_a_at) / RFU EBF3 (11725865_a_at) / Fold change /veh EBF3 (11725865_a_at) / RFU CAMK2N1 (11719241_x_at) / Fold change /veh CAMK2N1 (11719241_x_at) / RFU C5orf56 (11738088_a_at) / Fold change /veh C5orf56 (11738088_a_at) / RFU OLFML3 (11715873_a_at) / Fold change /veh OLFML3 (11715873_a_at) / RFU LOC100653217 /// NTM (11731650_a_at) / Fold change /veh LOC100653217 /// NTM (11731650_a_at) / RFU MAPK11 (11762145_a_at) / Fold change /veh MAPK11 (11762145_a_at) / RFU FIZ1 (11724087_x_at) / Fold change /veh FIZ1 (11724087_x_at) / RFU OASL (11726364_x_at) / Fold change /veh OASL (11726364_x_at) / RFU SOX15 (11748057_x_at) / Fold change /veh SOX15 (11748057_x_at) / RFU CD79A (11719716_a_at) / Fold change /veh CD79A (11719716_a_at) / RFU HIST1H1D (11736915_at) / Fold change /veh HIST1H1D (11736915_at) / RFU CASKIN2 (11723855_a_at) / Fold change /veh CASKIN2 (11723855_a_at) / RFU LOC730098 (11760151_x_at) / Fold change /veh LOC730098 (11760151_x_at) / RFU OR4N2 (11742367_at) / Fold change /veh OR4N2 (11742367_at) / RFU PRRT2 (11749266_a_at) / Fold change /veh PRRT2 (11749266_a_at) / RFU SNX32 (11753110_a_at) / Fold change /veh SNX32 (11753110_a_at) / RFU CDHR5 (11726645_a_at) / Fold change /veh CDHR5 (11726645_a_at) / RFU RCAN1 (11760418_a_at) / Fold change /veh RCAN1 (11760418_a_at) / RFU FAM167A (11723789_a_at) / Fold change /veh FAM167A (11723789_a_at) / RFU FAM26E (11764081_at) / Fold change /veh FAM26E (11764081_at) / RFU ISYNA1 (11749810_s_at) / Fold change /veh ISYNA1 (11749810_s_at) / RFU ACY1 (11761880_at) / Fold change /veh ACY1 (11761880_at) / RFU 11764098_at / Fold change /veh 11764098_at / RFU SAMD14 (11745864_x_at) / Fold change /veh SAMD14 (11745864_x_at) / RFU NPB (11741838_a_at) / Fold change /veh NPB (11741838_a_at) / RFU TMPRSS6 (11731388_a_at) / Fold change /veh TMPRSS6 (11731388_a_at) / RFU KRTAP10-2 (11738614_at) / Fold change /veh KRTAP10-2 (11738614_at) / RFU ARHGAP8 /// PRR5-ARHGAP8 (11727945_x_at) / Fold change /veh ARHGAP8 /// PRR5-ARHGAP8 (11727945_x_at) / RFU KRTAP5-7 /// NADSYN1 (11734609_at) / Fold change /veh KRTAP5-7 /// NADSYN1 (11734609_at) / RFU RASL12 (11751679_a_at) / Fold change /veh RASL12 (11751679_a_at) / RFU CDKN2B (11736163_a_at) / Fold change /veh CDKN2B (11736163_a_at) / RFU PRF1 (11729649_at) / Fold change /veh PRF1 (11729649_at) / RFU, ZNF638 /// ZNF638-IT1 / Fold change vs veh, ZNF638 /// ZNF638-IT1 / RFU, PANK3 / Fold change vs veh, PANK3 / RFU, SH3YL1 / Fold change vs veh, SH3YL1 / RFU, ZEB2 / Fold change vs veh, ZEB2 / RFU, NRIP1 / Fold change vs veh, NRIP1 / RFU, PTTG1IP / Fold change vs veh, PTTG1IP / RFU, CAPN2 / Fold change vs veh, CAPN2 / RFU, MED14 / Fold change vs veh, MED14 / RFU, SNORA58 / Fold change vs veh, SNORA58 / RFU, C1orf63 / Fold change vs veh, C1orf63 / RFU, LRRFIP1 / Fold change vs veh, LRRFIP1 / RFU, NDUFAF7 / Fold change vs veh, NDUFAF7 / RFU, SLC12A2 / Fold change vs veh, SLC12A2 / RFU, IBTK / Fold change vs veh, IBTK / RFU, ESF1 / Fold change vs veh, ESF1 / Fold change vs veh, TMEM50B / RFU, TAOK1 / Fold change vs veh, TAOK1 / RFU, ACBD3 / Fold change vs veh, ACBD3 / RFU, TMA16 / Fold change vs veh, TMA16 / RFU, RWDD3 / Fold change vs veh, RWDD3 / RFU, BCAT1 / Fold change vs veh, BCAT1 / RFU, EDEM3 / Fold change vs veh, EDEM3 / RFU, TMEM33 / Fold change vs veh, TMEM33 / RFU, WDR75 / Fold change vs veh, WDR75 / RFU, AHCTF1 / Fold change vs veh, AHCTF1 / RFU, TFRC / Fold change vs veh, TFRC / RFU, ZDHHC17 / Fold change vs veh, ZDHHC17 / RFU, NOM1 / Fold change vs veh, NOM1 / RFU, ARL8B / Fold change vs veh, ARL8B / RFU, ZBTB11 / Fold change vs veh, ZBTB11 / RFU, TAMM41 / Fold change vs veh, TAMM41 / RFU, KIAA1704 /// LOC100996395 / Fold change vs veh, KIAA1704 /// LOC100996395 / RFU, ING1 / Fold change vs veh, ING1 / RFU, TRMT61B / Fold change vs veh, TRMT61B / RFU, FUBP3 / Fold change vs veh, FUBP3 / RFU, TP53 / Fold change vs veh, TP53 / RFU, TNKS2 / Fold change vs veh, TNKS2 / RFU, ZFP14 / Fold change vs veh, ZFP14 / RFU, ACTR2 / Fold change vs veh, ACTR2 / RFU, PPP3R1 / Fold change vs veh, PPP3R1 / RFU, PIK3R1 / Fold change vs veh, PIK3R1 / RFU, HNRNPA1 / Fold change vs veh, HNRNPA1 / RFU, RNF170 / Fold change vs veh, RNF170 / RFU, ZNF28 / Fold change vs veh, ZNF28 / RFU, RNGTT / Fold change vs veh, RNGTT / RFU, OGT / Fold change vs veh, OGT / RFU, BRD1 / Fold change vs veh, BRD1 / RFU, MARS / Fold change vs veh, MARS / RFU, ZNF655 / Fold change vs veh, ZNF655 / RFU, FAHD1 / Fold change vs veh, FAHD1 / RFU, BDP1 / Fold change vs veh, BDP1 / RFU, LRRCC1 / Fold change vs veh, LRRCC1 / RFU, ARID1A / Fold change vs veh, ARID1A / RFU, ZNF146 / Fold change vs veh, ZNF146 / RFU, ZNF330 / Fold change vs veh, ZNF330 / RFU, GPN3 / Fold change vs veh, GPN3 / RFU, C9orf123 / Fold change vs veh, C9orf123 / RFU, N4BP2L2 / Fold change vs veh, N4BP2L2 / RFU, ARFIP1 / Fold change vs veh, ARFIP1 / RFU, FAM179B / Fold change vs veh, FAM179B / RFU, BCL10 / Fold change vs veh, BCL10 / RFU, UHRF1BP1L / Fold change vs veh, UHRF1BP1L / RFU, BET1 / Fold change vs veh, BET1 / RFU, CNOT2 / Fold change vs veh, CNOT2 / RFU, ZNF268 / Fold change vs veh, ZNF268 / Fold change vs veh, ZNF507 / RFU, DGCR2 / Fold change vs veh, DGCR2 / RFU, WDSUB1 / Fold change vs veh, WDSUB1 / Fold change vs veh, HSP90B1 /// MIR3652 / RFU, ADSS / Fold change vs veh, ADSS / RFU, GK / Fold change vs veh, GK / RFU, ZNF148 / Fold change vs veh, ZNF148 / RFU, TAF9 / Fold change vs veh, TAF9 / RFU, SLC1A5 / Fold change vs veh, SLC1A5 / RFU, SLMO2 / Fold change vs veh, SLMO2 / RFU, ABCC4 / Fold change vs veh, ABCC4 / RFU, LOC101060439 /// RAP1B / Fold change vs veh, LOC101060439 /// RAP1B / RFU, RFX7 / Fold change vs veh, RFX7 / RFU, GTPBP10 / Fold change vs veh, GTPBP10 / RFU, CNEP1R1 / Fold change vs veh, CNEP1R1 / RFU, BIVM-ERCC5 /// ERCC5 / Fold change vs veh, BIVM-ERCC5 /// ERCC5 / RFU, ILF3 / Fold change vs veh, ILF3 / RFU 11762660_at / Fold change /veh 11762660_at / RFU VCAN (11757783_s_at) / Fold change /veh VCAN (11757783_s_at) / RFU DDX43 (11728927_at) / Fold change /veh DDX43 (11728927_at) / RFU KRT8 (11758188_x_at) / Fold change /veh KRT8 (11758188_x_at) / RFU NKD1 (11759106_at) / Fold change /veh NKD1 (11759106_at) / RFU SRD5A1 (11742802_a_at) / Fold change /veh SRD5A1 (11742802_a_at) / RFU TPSAB1 /// TPSB2 (11721975_s_at) / Fold change /veh TPSAB1 /// TPSB2 (11721975_s_at) / RFU GSTM3 (11746129_a_at) / Fold change /veh GSTM3 (11746129_a_at) / RFU IL23R (11737362_x_at) / Fold change /veh IL23R (11737362_x_at) / RFU TMEM51 (11727254_a_at) / Fold change /veh TMEM51 (11727254_a_at) / RFU PIWIL2 (11732686_x_at) / Fold change /veh PIWIL2 (11732686_x_at) / RFU ORM1 (11744905_x_at) / Fold change /veh ORM1 (11744905_x_at) / RFU CCDC152 (11743942_at) / Fold change /veh CCDC152 (11743942_at) / RFU ECM1 (11717891_a_at) / Fold change /veh ECM1 (11717891_a_at) / RFU IL23R (11748794_a_at) / Fold change /veh IL23R (11748794_a_at) / RFU TNFAIP8L3 (11732012_x_at) / Fold change /veh TNFAIP8L3 (11732012_x_at) / RFU MBOAT4 (11741988_at) / Fold change /veh MBOAT4 (11741988_at) / RFU 11764193_at / Fold change /veh 11764193_at / RFU TMEM53 (11763286_at) / Fold change /veh TMEM53 (11763286_at) / RFU MAGEB2 (11727129_at) / Fold change /veh MAGEB2 (11727129_at) / RFU TMEM200A (11744735_a_at) / Fold change /veh TMEM200A (11744735_a_at) / RFU CCDC152 (11751479_a_at) / Fold change /veh CCDC152 (11751479_a_at) / RFU FAM211A (11726209_a_at) / Fold change /veh FAM211A (11726209_a_at) / RFU RGS16 (11746705_a_at) / Fold change /veh RGS16 (11746705_a_at) / RFU VCAN (11755009_s_at) / Fold change /veh VCAN (11755009_s_at) / RFU RHOB (11743442_s_at) / Fold change /veh RHOB (11743442_s_at) / RFU RGS16 (11720943_a_at) / Fold change /veh RGS16 (11720943_a_at) / RFU RGS16 (11720944_at) / Fold change /veh RGS16 (11720944_at) / RFU, VPS4B / Fold change vs veh, VPS4B / RFU, CREB1 / Fold change vs veh, CREB1 / RFU, DNAJC13 / Fold change vs veh, DNAJC13 / RFU, GNAQ / Fold change vs veh, GNAQ / RFU, CDK5R1 / Fold change vs veh, CDK5R1 / RFU, ZRANB3 / Fold change vs veh, ZRANB3 / RFU, CUL4A / Fold change vs veh, CUL4A / RFU, CCNY / Fold change vs veh, CCNY / RFU, UFL1 / Fold change vs veh, UFL1 / RFU, COG3 / Fold change vs veh, COG3 / RFU, DIAPH2 / Fold change vs veh, DIAPH2 / RFU, SKA2 / Fold change vs veh, SKA2 / RFU, AFF3 / Fold change vs veh, AFF3 / RFU, LMF1 / Fold change vs veh, LMF1 / RFU, IPO11 / Fold change vs veh, IPO11 / RFU, DFFB / Fold change vs veh, DFFB / RFU, FOXP1 / Fold change vs veh, FOXP1 / RFU, CARD8 / Fold change vs veh, CARD8 / RFU, STRN3 / Fold change vs veh, STRN3 / RFU, ADK / Fold change vs veh, ADK / RFU, RASSF2 / Fold change vs veh, RASSF2 / RFU, WIPF1 / Fold change vs veh, WIPF1 / RFU, LARP1B / Fold change vs veh, LARP1B / RFU, RASA1 / Fold change vs veh, RASA1 / RFU, RB1 / Fold change vs veh, RB1 / RFU, PPFIA1 / Fold change vs veh, PPFIA1 / RFU, MAT2A / Fold change vs veh, MAT2A / RFU, CCT5 / Fold change vs veh, CCT5 / RFU, WDR92 / Fold change vs veh, WDR92 / RFU, CUX1 / Fold change vs veh, CUX1 / RFU, TTC7A / Fold change vs veh, TTC7A / RFU, TMEM135 / Fold change vs veh, TMEM135 / RFU, DEPTOR / Fold change vs veh, DEPTOR / RFU, CPM / Fold change vs veh, CPM / RFU, DNAJB6 / Fold change vs veh, DNAJB6 / RFU, CACNA2D3 / Fold change vs veh, CACNA2D3 / RFU, DTX4 / Fold change vs veh, DTX4 / RFU, TFCP2 / Fold change vs veh, TFCP2 / RFU, GMCL1 /// GMCL1P1 / Fold change vs veh, GMCL1 /// GMCL1P1 / RFU, AEBP2 / Fold change vs veh, AEBP2 / RFU, SNHG1 /// SNORD22 /// SNORD25 /// SNORD26 /// SNORD27 /// SNORD28 /// SNORD29 /// SNORD31 / Fold change vs veh, SNHG1 /// SNORD22 /// SNORD25 /// SNORD26 /// SNORD27 /// SNORD28 /// SNORD29 /// SNORD31 / Fold change (Aza/veh), C12orf56 (ProbeSet 11735607_a_at) / Fold change (ACY-1035/veh), C12orf56 (ProbeSet 11735607_a_at) / Fold change (Aza/veh), FGFR1OP (ProbeSet 11751329_s_at) / Fold change (ACY-1035/veh), FGFR1OP (ProbeSet 11751329_s_at) / Fold change (Aza/veh), VPS36 (ProbeSet 11739960_a_at) / Fold change (ACY-1035/veh), VPS36 (ProbeSet 11739960_a_at) / RFU SYPL1 (11715823_x_at) / Fold change /veh SYPL1 (11715823_x_at) / RFU IGFBP7 (11715501_s_at) / Fold change /veh IGFBP7 (11715501_s_at) / RFU REEP3 (11722064_at) / Fold change /veh REEP3 (11722064_at) / RFU IGLL1 (11728026_x_at) / Fold change /veh IGLL1 (11728026_x_at): dose or concentration left out as unconfirmed
# Conditions: ProbeSet 11747937_a_at; LIST D
smiles,measurement,value
Nc1ccc(-c2cccs2)cc1NC(=O)c1ccc2c(c1)cc(C1CC1)n2CCN1CCOCC1 [ACY-1035],"RFU, DNAJB6",348.58 RFU
